The nature of data set [1]: Photosensitivity screening: H2O2 formation by antioxidant candidates upon light exposure (Amplex Ultra Red Assay). Type of data set: physicochemical. As to conditions: for (H2O2 produced by Compound)/(H2O2 produced by L-Trp): 1 mM in 20 mM histidine acetate pH 5.5, four hours of light at 250 W/m^2; for H2O2 production upon light exposure compared to L-Trp (in words) / H2O2 produced in comparison to L-Trp (times more): 1 mM, 20 mM L-His-acetate pH 5.5, 4 h light; for H2O2 production upon light exposure compared to L-Trp (in words): 0.22 million lux hours. The procedure:
As a screening tool, antioxidant candidates were exposed to light for four hours at 250 W/m^2 and the resulting H2O2 formation was quantified by the Amplexassay. Specifically, antioxidants were prepared to 1 mM in 20 mM histidine acetate buffer at pH 5.5. The 1 mM antioxidant solutions were aliquoted into glass vials (2 mL/glass vial) and exposed to four hours of light at 250 W/m^2 in an Atlas SunTest CPS+ Xenon Test Instrument (Chicago, Ill.). Total UV dose was 90 watt-hours/square meter and total visible dose was 0.22 million lux hours over the 4-hour period. Control vials were wrapped in aluminum foil and treated similarly. The amount of hydrogen peroxide generated after exposure to light was measured using the Amplex® Ultra Red Assay (Invitrogen, Carlsbad, Calif.) following the manufacturer's recommended procedure. On addition of horseradish peroxidase (HRP), the dye reacted 1:1 stoichiometrically with H2O2, resulting in the production of fluorescent oxidation product resorufin. In this study, fluorescence readings were obtained using a Spectra Max M2 Micro-plate Reader (Molecular Devices, Sunnyvale, Calif.) with excitation and emission set at 560 nm and 590 nm, respectively. Final H2O2 concentrations were determined using a standard curve ranging from 0 μm to 20 μm. […]

Data set [2] in a line: Cyclic voltammetry (CV) screening of oxidation potentials. As to conditions: for Oxidation Potential (anodic peak): glassy carbon working electrode, 0.2 M lithium perchlorate; for Oxidation potential relative to L-Trp (in words): cyclic voltammetry. Type of data set: physicochemical. How it is done: The oxidation/reduction characteristics of the compounds were investigated. Several compounds, including L-Trp and derivatives, were evaluated for the protection of Trp oxidation in proteins using cyclic voltammetry (CV) and rank ordered based on their oxidation potentials (Table 2). Specifically, the candidate antioxidants were dissolved in deionized water and then added to a 0.2 M lithium perchlorate electrolyte solution. […] Solutions were scanned from −0.10 V to +1.50 V at a scan rate of either 100 or 500 mV/sec. The analytical cell was purged for four minutes with nitrogen before scanning of each antioxidant solution. The input was a linear scan of the potential of a working electrode, and the output was measurement of the resulting current. […] Redox reactions were characterized by sharp increases or decreases in current (peaks). The potential at which an oxidation reaction occurred was referred to as the anodic peak potential (or oxidation potential), and the potential at which a reduction occurred was referred to as is the cathodic peak (or reduction) potential.

For data set [3], the system named is mAb1. The data set is described as follows: mAb1 light stress study, 16 hours; Fab/Fc oxidation by RP-HPLC. Type of data set: physicochemical, human. As to conditions: 16 hours of light at 250 W/m^2, excipient 1 mM. The procedure: (§1) The fragments were reduced with DTT, and then separated and identified via Liquid Chromatography-Mass Spectrometry (LC-MS). […] Comparison of area integrated under the oxidized and native peaks was used to quantify HC Fab and Fc oxidation. […] By using the papain digest RP-HPLC method in the present study it was possible to investigate Trp residue oxidation by quantifying HC Fab oxidation, and Met residue oxidation by quantifying HC Fc oxidation.
Antioxidants were added at 1 mM. Glass vials containing these formulations were exposed to 250 W/m^2 light in an Atlas SunTest CPS+ Xenon Test Instrument (Chicago, Ill.). Control vials were wrapped in aluminum foil and treated similarly. After light exposure, solutions were prepared for analysis by reverse-phase HPLC as described above.

The test system of data set [4] is mAb1. Briefly: mAb1 AAPH stress study; Fab/Fc oxidation by RP-HPLC. Type of data set: physicochemical, human. As to conditions: AAPH, 24 hours at 40° C.; antioxidants at 1 mM; label mAb1 = no excipient.
Excerpt: as §1
% Fab oxidation and % Fc oxidation were calculated as follows: […]
Antioxidants were added at 1 mM. […] After buffer exchange, each solution was prepared for analysis by reverse-phase HPLC as described above.

Data set [5] relates to mAb1. The data set is described as follows: mAb1 light stress, eight hours, with L-Trp and L-Met; Fab/Fc oxidation by papain digest RP-HPLC. The class given is physicochemical, human. As to conditions: 8 h light at 250 W/m^2. How it is done: L-tryptophan (L-Trp), an antioxidant used in protein formulations, has been recently shown to be photosensitive (Igarashi et al., Anal Sci 23(8):943-8 (2007)) and to have the ability to produce H2O2 upon light exposure. […] Control vials were wrapped in aluminum foil and treated similarly. After light exposure, solutions were prepared for analysis by reverse-phase HPLC. […] Following incubation, 900 μL of the solution was combined with 100 μL of 1 M dithiothreitol (DTT) and incubated for another thirty minutes at 37° C. Samples were then run on an Agilent, Inc. 1100/1200 HPLC system (Santa Clara, Calif.) equipped with UV detection at 280 nm in conjunction with a Varian, Inc. Pursuit 3 μm, 2 mm ID×250 mm diphenyl column (Palo Alto, Calif.). Mobile Phase A was 0.1% TFA in water. Mobile Phase B was 0.1% TFA in acetonitrile. The mobile phase gradient increased linearly from 34% B at 0 minutes to 43% B at 50.0 minutes, then to 95% B at 50.1 minutes. The gradient remained at 95% B until 60.1 minutes, and then decreased linearly from 95% B to 34% B between 60.1 and 60.2 minutes. The gradient remained at 34% B until the end of the cycle at 80.2 minutes. The column temperature was 65° C., total flow rate was 0.2 mL/min, and injection volume of each sample was 6 μL. Chromatograms were then integrated for quantification of oxidation.

Entries after “also recorded” stand apart in the source; their conditions may differ.

Take `Nc1ccc2[nH]cc(C[C@H](N)C(=O)O)c2c1` (racemic) [5-Amino-DL-Trp, 5-Amino-Tryptophan]: in data set [1], the “(H2O2 produced by Compound)/(H2O2 produced by L-Trp)” value is listed as 0.29 and the “H2O2 production upon light exposure compared to L-Trp (in words)” value was “low levels of H2O2 production”. For the same molecule, the “Oxidation Potential (anodic peak)” value in data set [2] worked out at 0.410 V vs Ag/AgCl.
On to `COc1ccc2[nH]cc(C[C@H](N)C(=O)O)c2c1` (racemic) [5-Methoxy-DL-Trp, 5-Methoxy-Tryptophan], for which, in data set [1], the “(H2O2 produced by Compound)/(H2O2 produced by L-Trp)” value came to 1.05 and the “H2O2 production upon light exposure compared to L-Trp (in words)” value is listed as “produced more H2O2”. The “Oxidation Potential (anodic peak)” value in data set [2] was 0.890 V vs Ag/AgCl.
In the case of `NC(Cc1c[nH]c2ccc([N+](=O)[O-])cc12)C(=O)O` (racemic) [5-nitro-DL-tryptophan], in data set [2], the “Oxidation potential relative to L-Trp (in words)” value is recorded as “higher oxidation potential than L-Trp” and the “Oxidation Potential (anodic peak)” value was 1.055 V vs Ag/AgCl.
`Oc1cccc2[nH]ccc12` [4-Hydroxyindole, 4-Hydroxy Indole]: the “(H2O2 produced by Compound)/(H2O2 produced by L-Trp)” value in data set [1] came to 0.00.
For the molecule `N[C@@H](Cc1c[nH]c2ccc(F)cc12)C(=O)O` [5-Fluoro-L-Trp, 5-Fluoro-Tryptophan], in data set [1], the “(H2O2 produced by Compound)/(H2O2 produced by L-Trp)” value stood at 0.71 and the “H2O2 production upon light exposure compared to L-Trp (in words)” value is “produced more H2O2”. For the same molecule, in data set [2], the “Oxidation potential relative to L-Trp (in words)” value is on record as “higher oxidation potential than L-Trp” and the “Oxidation Potential (anodic peak)” value was 0.965 V vs Ag/AgCl.
In the case of `Nc1ccc(O)cc1C(=O)O` [5-Hydroxyanthranilic Acid, 5-Hydroxy Anthranilic Acid], in data set [1], the “(H2O2 produced by Compound)/(H2O2 produced by L-Trp)” value came to 0.44 and the “H2O2 production upon light exposure compared to L-Trp (in words)” value is given as “half as much H2O2”.
For the molecule `O=C(O)Cc1c[nH]c2ccc(O)cc12` [5-Hydroxyindole-3-Acetic Acid, 5-Hydroxy Indole-3-Acetic Acid], in data set [1], the “(H2O2 produced by Compound)/(H2O2 produced by L-Trp)” value is recorded as 0.11 and the “H2O2 production upon light exposure compared to L-Trp (in words)” value was “low levels of H2O2 production”. For the same molecule, in data set [2], the “Oxidation Potential (anodic peak)” value worked out at 0.535 V vs Ag/AgCl.
For the molecule `O=C(O)c1cc(O)ccc1O` [5-Hydroxysalicylic Acid, 5-Hydroxy Salicylic Acid], the “(H2O2 produced by Compound)/(H2O2 produced by L-Trp)” value in data set [1] worked out at 0.84.
For `Oc1cccc2cc[nH]c12` [7-Hydroxyindole, 7-Hydroxy Indole], the “Effect on light-induced Fab oxidation (in words)” value in the data set with mAb1 [3] was “reducing Fab oxidation to near control levels”. Further, in the data set with mAb1 [4], the “Fab (Trp residue) oxidation of mAb1 after AAPH incubation” value was “about 2%”. Also, the “(H2O2 produced by Compound)/(H2O2 produced by L-Trp)” value in data set [1] is recorded as −0.03.
As to `O=C(O)c1cc2cccc(O)c2[nH]1` [7-Hydroxyindole-2-Carboxylic Acid, 7-Hydroxy Indole-2-Carboxylic Acid], the “(H2O2 produced by Compound)/(H2O2 produced by L-Trp)” value in data set [1] is reported as 0.15.
As to `Nc1ccccc1C(=O)O` [Anthranilic Acid], in data set [1], the “(H2O2 produced by Compound)/(H2O2 produced by L-Trp)” value is recorded as 2.50 and the “H2O2 production upon light exposure compared to L-Trp (in words)” value is on record as “twice as much H2O2”.
With `O=C(O)Cc1c[nH]c2ccccc12` [Indole-3-Acetic Acid], in data set [1], the “(H2O2 produced by Compound)/(H2O2 produced by L-Trp)” value is recorded as 2.40 and the “H2O2 production upon light exposure compared to L-Trp (in words)” value is given as “twice as much H2O2; also recorded: two times more; also recorded: produced more H2O2”. In data set [2], the “Oxidation potential relative to L-Trp (in words)” value is “higher oxidation potential than L-Trp” and the “Oxidation Potential (anodic peak)” value turned out to be 0.948 V vs Ag/AgCl.
For the molecule `c1ccc2[nH]ccc2c1` [Indole], in data set [1], the “(H2O2 produced by Compound)/(H2O2 produced by L-Trp)” value came to 0.95 and the “H2O2 production upon light exposure compared to L-Trp (in words)” value is reported as “behaved similarly to L-Trp”. For the same molecule, the “Oxidation potential relative to L-Trp (in words)” value in data set [2] was “significantly lower oxidation potential than L-Trp”.
As for `Nc1ccccc1C(=O)CC(N)C(=O)O` [L-Kynurenine, Kynurenine], in data set [1], the “(H2O2 produced by Compound)/(H2O2 produced by L-Trp)” value is 0.20. In addition, the “H2O2 production upon light exposure compared to L-Trp (in words)” value in data set [1] (listed as L-kynurenine) was “did not produce much H2O2”; in data set [1] (listed as kynurenine), “about one fifth of the H2O2”. In data set [2], the “Oxidation potential relative to L-Trp (in words)” value is given as “higher oxidation potential than L-Trp”. The “Oxidation Potential (anodic peak)” value in data set [2] was 1.040 V vs Ag/AgCl.
With `CSCC[C@H](N)C(=O)O` [L-Met, L-methionine], in the data set on mAb1 [5] (10, 25, 50, 100 mM L-Met added to formulation containing 1 mM L-Trp), the “Effect on Fab oxidation of mAb1 (in words)” value is reported as “appeared to reduce Fab oxidation slightly”. In addition, the “Effect on Fc oxidation of mAb1 (in words)” value in the data set on mAb1 [5] (L-Met 10, 25, 50, 100 mM added to 1 mM L-Trp, label mAb1 = No Excipient) is reported as “reduced the amount of Fc oxidation”.
For `NC(=O)[C@@H](N)Cc1c[nH]c2ccccc12` [L-Trpamide, Tryptophanamide], in the data set on mAb1 [3], the “Fc oxidation under light stress compared to no excipient control (in words)” value is listed as “more Fc oxidation”. Also, in the data set with mAb1 [3] (label mAb1 = No Excipient), the “Fab oxidation increase over the control level (mAb1 Ref Mat)” value is reported as 8 fold. Moreover, the “(H2O2 produced by Compound)/(H2O2 produced by L-Trp)” value in data set [1] was 0.43. For the same molecule, in data set [2], the “Oxidation potential relative to L-Trp (in words)” value was “higher oxidation potential than L-Trp” and the “Oxidation Potential (anodic peak)” value was 1.015 V vs Ag/AgCl.
Take `CC(=O)N[C@@H](Cc1c[nH]c2ccccc12)C(=O)O` [N-Acetyl-L-Trp, N-Acetyl-Tryptophan]: the “(H2O2 produced by Compound)/(H2O2 produced by L-Trp)” value in data set [1] worked out at 0.31. Besides, the “Oxidation Potential (anodic peak)” value in data set [2] stood at 0.875 V vs Ag/AgCl.
Regarding `COc1ccc2[nH]cc(CCNC(C)=O)c2c1` [N-acetyl-5-methoxytryptamine], in data set [1], the “(H2O2 produced by Compound)/(H2O2 produced by L-Trp)” value worked out at 0.28 and the “H2O2 production upon light exposure compared to L-Trp (in words)” value was “less than a third of the H2O2”. The “Oxidation Potential (anodic peak)” value in data set [2] came out at 0.730 V vs Ag/AgCl.
`Cc1ncc(CO)c(CO)c1O` [Pyridoxine]: in data set [1], the “(H2O2 produced by Compound)/(H2O2 produced by L-Trp)” value was found to be 5.16 and the “H2O2 produced in comparison to L-Trp (times more)” value was 5 times.
On to `Cc1c(C)c2c(c(C)c1O)CCC(C)(C(=O)O)O2` (stereo not shown) [Trolox], for which, in data set [1], the “(H2O2 produced by Compound)/(H2O2 produced by L-Trp)” value is 122.75 and the “H2O2 produced in comparison to L-Trp (times more)” value is given as 123 times.
For `NCCc1c[nH]c2ccccc12` [Tryptamine], in data set [1], the “(H2O2 produced by Compound)/(H2O2 produced by L-Trp)” value is recorded as 0.53 and the “H2O2 production upon light exposure compared to L-Trp (in words)” value is on record as “about half as much H2O2”. In addition, the “H2O2 production upon light exposure compared to L-Trp (in words)” value in data set [1] (listed as tryptamine) is “two times less”. Besides, in data set [2], the “Oxidation potential relative to L-Trp (in words)” value was “higher oxidation potential than L-Trp” and the “Oxidation Potential (anodic peak)” value amounted to 1.010 V vs Ag/AgCl.
